Source: patent publication US9938269B2, “Inhibitor compounds of phosphodiesterase type 10A” (ABBVIE INC., priority 2011, dated 2018)
Structures can show the parent of a compound that is named as a salt.

Experiments:
[1] = Determination of the microsomal half-life, human liver microsomes; details: for microsomal CLint at 0.5 μM: human, liver microsomes, pH 7.4
[2] = Determination of the microsomal half-life, rat liver microsomes; details: for microsomal CLint at 0.5 μM: rat, liver microsomes, pH 7.4
Description: The test substances were incubated in a concentration of 0.5 μM as follows:
0.5 μM test substance are preincubated together with liver microsomes from different species (from rat, human or other species) (0.25 mg of microsomal protein/10 in 0.05 M potassium phosphate buffer of pH 7.4 in microtiter plates at 37° C. for 5 min. The reaction is started by adding NADPH (1 mg/mL). After 0, 5, 10, 15, 20 and 30 min., 50 μl aliquots are removed, and the reaction is immediately stopped and cooled with the same volume of acetonitrile. The samples are frozen until analyzed. The remaining concentration of undegraded test substance is determined by MSMS. The half-life (T½) is determined from the gradient of the signal of test substance/unit time plot, it being possible to calculate the half-life of the test substance, assuming first order kinetics, from the decrease in the concentration of the compound with time. The microsomal clearance (mCl) is calculated from mCl=ln 2/T½/(content of microsomal protein in mg/ml)×1000 [ml/min/mg]

[3] = target: T1, PDE10A (human) (Homo sapiens, UniProt Q9Y233); assay: Measurement of PDE activity (HTRF cAMP kit), human PDE10A; type: biochemical; details: PDE enzymatic reaction, substrate 20 nM for PDE10, 60 minutes at 29 C
T1 construct: purchased BPS Bioscience
Procedure, shortened: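 HTRF detection of cAMP left after hydrolysis, expressed as percent of uninhibited control to derive IC50. Reaction: serially diluted inhibitor mixed with recombinant enzyme, started with 20 nM cAMP, 60 min at 29 °C in Tris-HCl pH 7.5 buffer containing MgCl2 and BSA.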

T1 sequence (Q9Y233 whole entry): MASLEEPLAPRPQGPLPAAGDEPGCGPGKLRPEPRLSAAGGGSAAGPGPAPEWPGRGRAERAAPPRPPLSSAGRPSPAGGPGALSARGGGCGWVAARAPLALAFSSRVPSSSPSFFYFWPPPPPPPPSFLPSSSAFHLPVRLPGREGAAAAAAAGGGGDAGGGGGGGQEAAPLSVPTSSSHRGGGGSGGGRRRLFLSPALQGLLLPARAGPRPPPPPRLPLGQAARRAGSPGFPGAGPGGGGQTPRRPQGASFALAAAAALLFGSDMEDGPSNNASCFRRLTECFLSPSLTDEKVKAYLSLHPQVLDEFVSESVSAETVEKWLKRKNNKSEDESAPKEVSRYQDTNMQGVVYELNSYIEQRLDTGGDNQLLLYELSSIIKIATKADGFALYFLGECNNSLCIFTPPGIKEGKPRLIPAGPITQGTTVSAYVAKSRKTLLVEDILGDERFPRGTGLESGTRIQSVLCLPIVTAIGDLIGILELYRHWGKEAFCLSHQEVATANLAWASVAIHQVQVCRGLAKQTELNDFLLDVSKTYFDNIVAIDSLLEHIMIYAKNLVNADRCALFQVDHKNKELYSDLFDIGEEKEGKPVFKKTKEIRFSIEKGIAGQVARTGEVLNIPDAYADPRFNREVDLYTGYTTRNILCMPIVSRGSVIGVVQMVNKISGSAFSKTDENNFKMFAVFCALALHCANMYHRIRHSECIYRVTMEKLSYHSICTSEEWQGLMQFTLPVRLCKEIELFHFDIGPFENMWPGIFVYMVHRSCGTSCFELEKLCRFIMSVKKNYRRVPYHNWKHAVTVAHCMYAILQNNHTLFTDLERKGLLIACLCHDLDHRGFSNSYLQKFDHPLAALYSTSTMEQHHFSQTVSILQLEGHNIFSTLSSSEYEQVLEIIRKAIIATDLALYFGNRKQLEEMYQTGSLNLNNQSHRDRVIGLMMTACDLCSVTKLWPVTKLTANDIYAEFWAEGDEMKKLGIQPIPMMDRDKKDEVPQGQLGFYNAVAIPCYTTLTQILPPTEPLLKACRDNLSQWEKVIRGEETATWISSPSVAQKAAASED

COc1ccc(-c2cccc3c2C(=O)N(CCc2ccc4ccccc4n2)C3)cn1 [Example 54, 7-(6-Methoxy-pyridin-3-yl)-2-(2-quinolin-2-yl-ethyl)-2,3-dihydro-isoindol-1-one]
microsomal CLint at 0.5 μM [1]: 100 to 220 µL/min/mg | microsomal CLint at 0.5 μM [2]: 100 to 220 µL/min/mg | IC50 [3]: < 100 nM

O=C1c2c(cccc2-c2cncnc2)CN1CCc1ccc2ccccc2n1 [Example 58, 7-Pyrimidin-5-yl-2-(2-quinolin-2-yl-ethyl)-2,3-dihydro-isoindol-1-one]
microsomal CLint at 0.5 μM [1]: > 220 µL/min/mg | microsomal CLint at 0.5 μM [2]: < 100 µL/min/mg | IC50 [3]: < 100 nM

Cc1ncccc1-c1cccc2c1C(=O)N(CCc1ccc3ccccc3n1)C2 [Example 86, 7-(2-Methyl-pyridin-3-yl)-2-(2-quinolin-2-yl-ethyl)-2,3-dihydro-isoindol-1-one]
microsomal CLint at 0.5 μM [1]: 100 to 220 µL/min/mg | microsomal CLint at 0.5 μM [2]: > 220 µL/min/mg | IC50 [3]: < 100 nM

Cc1ccc(-c2cccc3c2C(=O)N(CCc2ccc4ccccc4n2)C3)cn1 [Example 91, 7-(6-Methyl-pyridin-3-yl)-2-(2-quinolin-2-yl-ethyl)-2,3-dihydro-isoindol-1-one]
microsomal CLint at 0.5 μM [1]: 100 to 220 µL/min/mg | microsomal CLint at 0.5 μM [2]: < 100 µL/min/mg | IC50 [3]: < 100 nM

O=C1Cc2ccc(-c3cccc4c3C(=O)N(CCc3ccc5ccccc5n3)C4)cc2N1 [Example 96, 6-[3-Oxo-2-(2-quinolin-2-yl-ethyl)-2,3-dihydro-1H-isoindol-4-yl]-1,3-dihydro-indol-2-one]
microsomal CLint at 0.5 μM [1]: 100 to 220 µL/min/mg | microsomal CLint at 0.5 μM [2]: 100 to 220 µL/min/mg | IC50 [3]: < 100 nM

O=C1c2c(cccc2-c2ccc(C(F)(F)F)nc2)CN1CCc1ccc2ccccc2n1 [Example 98, 2-(2-Quinolin-2-yl-ethyl)-7-(6-trifluoromethyl-pyridin-3-yl)-2,3-dihydro-isoindol-1-one]
microsomal CLint at 0.5 μM [1]: 100 to 220 µL/min/mg | microsomal CLint at 0.5 μM [2]: < 100 µL/min/mg | IC50 [3]: 200 to 500 nM

O=C1c2c(cccc2N2CCOCC2)CN1CCc1ccc2ccccc2n1 [Example 99, 7-Morpholin-4-yl-2-(2-quinolin-2-yl-ethyl)-2,3-dihydro-isoindol-1-one]
microsomal CLint at 0.5 μM [1]: 100 to 220 µL/min/mg | microsomal CLint at 0.5 μM [2]: < 100 µL/min/mg | IC50 [3]: < 100 nM

O=C1c2c(cccc2N2C[C@@H]3C[C@H]2CN3)CN1CCc1ccc2ccccc2n1 [Example 101, 7-(1S,4S)-2,5-Diaza-bicyclo[2.2.1]hept-2-yl-2-(2-quinolin-2-yl-ethyl)-2,3-dihydro-isoindol-1-one]
microsomal CLint at 0.5 μM [1]: < 100 µL/min/mg | microsomal CLint at 0.5 μM [2]: > 220 µL/min/mg | IC50 [3]: 200 to 500 nM

O=C1c2c(cccc2N2CCNCC2)CN1CCc1ccc2ccccc2n1 [Example 102, 7-piperazin-1-yl-2-(2-quinolin-2-yl-ethyl)-2,3-dihydro-isoindol-1-one]
microsomal CLint at 0.5 μM [1]: < 100 µL/min/mg | microsomal CLint at 0.5 μM [2]: 100 to 220 µL/min/mg | IC50 [3]: 200 to 500 nM

O=C1c2c(cccc2N2CCS(=O)(=O)CC2)CN1CCc1ccc2ccccc2n1 [Example 104, 7-(1,1-Dioxo-1-thiomorpholin-4-yl)-2-(2-quinolin-2-yl-ethyl)-2,3-dihydro-isoindol-1-one]
microsomal CLint at 0.5 μM [1]: < 100 µL/min/mg | microsomal CLint at 0.5 μM [2]: < 100 µL/min/mg | IC50 [3]: < 100 nM

O=C1c2c(cccc2N2CCN(c3ccncc3)CC2)CN1CCc1ccc2ccccc2n1 [Example 106, 7-(4-Pyridin-4-yl-piperazin-1-yl)-2-(2-quinolin-2-yl-ethyl)-2,3-dihydro-isoindol-1-one]
microsomal CLint at 0.5 μM [1]: 100 to 220 µL/min/mg | microsomal CLint at 0.5 μM [2]: < 100 µL/min/mg | IC50 [3]: 200 to 500 nM

CN1CCN(c2cccc3c2C(=O)N(CCc2ccc4ccccc4n2)C3)CC1 [Example 107, 7-(4-Methyl-piperazin-1-yl)-2-(2-quinolin-2-yl-ethyl)-2,3-dihydro-isoindol-1-one]
microsomal CLint at 0.5 μM [1]: < 100 µL/min/mg | microsomal CLint at 0.5 μM [2]: < 100 µL/min/mg | IC50 [3]: 200 to 500 nM

O=C1c2c(cccc2N2CCCOCC2)CN1CCc1ccc2ccccc2n1 [Example 110, 7-[1,4]Oxazepan-4-yl-2-(2-quinolin-2-yl-ethyl)-2,3-dihydro-isoindol-1-one hydrochloride]
microsomal CLint at 0.5 μM [1]: > 220 µL/min/mg | microsomal CLint at 0.5 μM [2]: 100 to 220 µL/min/mg | IC50 [3]: < 100 nM

O=C1c2c(cccc2N2CCOCC2)CN1CCc1ccc2cc(F)ccc2n1 [Example 115, 2-[2-(6-Fluoro-quinolin-2-yl)-ethyl]-7-morpholin-4-yl-2,3-dihydro-isoindol-1-one trifluoroacetate]
microsomal CLint at 0.5 μM [1]: 100 to 220 µL/min/mg | microsomal CLint at 0.5 μM [2]: < 100 µL/min/mg | IC50 [3]: < 100 nM

COc1ccc2nc(CCN3Cc4cccc(N5CCOCC5)c4C3=O)ccc2c1 [Example 116, 2-[2-(6-Methoxy-quinolin-2-yl)-ethyl]-7-morpholin-4-yl-2,3-dihydro-isoindol-1-one hydrochloride]
microsomal CLint at 0.5 μM [1]: 100 to 220 µL/min/mg | microsomal CLint at 0.5 μM [2]: < 100 µL/min/mg | IC50 [3]: < 100 nM

O=C1c2c(N3CCOCC3)ccnc2CN1CCc1ccc2ccccc2n1 [Example 119, 4-Morpholin-4-yl-6-(2-quinolin-2-yl-ethyl)-6,7-dihydro-pyrrolo[3,4-b]pyridin-5-one]
microsomal CLint at 0.5 μM [1]: < 100 µL/min/mg | microsomal CLint at 0.5 μM [2]: < 100 µL/min/mg | IC50 [3]: < 100 nM

O=C1c2c(cccc2N2CCOCC2)CN1CCc1cccc(-c2ncccn2)c1 [Example 120, 7-Morpholino-2-(3-(pyrimidin-2-yl)phenethyl)isoindolin-1-one]
microsomal CLint at 0.5 μM [1]: 100 to 220 µL/min/mg | microsomal CLint at 0.5 μM [2]: 100 to 220 µL/min/mg | IC50 [3]: 200 to 500 nM

O=C1c2cccc(N3CCOCC3)c2CN1CCc1ccc2ccccc2n1 [Example 130, 4-Morpholin-4-yl-2-(2-quinolin-2-yl-ethyl)-2,3-dihydro-isoindol-1-one; compound with trifluoro-acetic acid]
microsomal CLint at 0.5 μM [1]: 100 to 220 µL/min/mg | microsomal CLint at 0.5 μM [2]: > 220 µL/min/mg | IC50 [3]: < 100 nM

O=C1c2cccc(N3CCS(=O)(=O)CC3)c2CN1CCc1ccc2ccccc2n1 [Example 131, 4-(1,1-Dioxo-1-thiomorpholin-4-yl)-2-(2-quinolin-2-yl-ethyl)-2,3-dihydro-isoindol-1-one]
microsomal CLint at 0.5 μM [1]: < 100 µL/min/mg | microsomal CLint at 0.5 μM [2]: < 100 µL/min/mg | IC50 [3]: 200 to 500 nM

O=C1c2c(cccc2N2CCC3(COC3)C2)CN1CCc1ccc2ccccc2n1 [Example 134, 7-(2-Oxa-6-aza-spiro[3.4]oct-6-yl)-2-(2-quinolin-2-yl-ethyl)-2,3-dihydro-isoindol-1-one]
microsomal CLint at 0.5 μM [1]: > 220 µL/min/mg | microsomal CLint at 0.5 μM [2]: 100 to 220 µL/min/mg | IC50 [3]: < 100 nM

O=C1c2c(cccc2N2CC[S+]([O-])CC2)CN1CCc1ccc2ccccc2n1 [Example 135, 7-(1-oxo-thiomorpholin-4-yl)-2-(2-quinolin-2-yl-ethyl)-2,3-dihydro-isoindol-1-one]
microsomal CLint at 0.5 μM [1]: < 100 µL/min/mg | microsomal CLint at 0.5 μM [2]: < 100 µL/min/mg | IC50 [3]: < 100 nM

O=C1c2c(N3CCS(=O)(=O)CC3)ccnc2CN1CCc1ccc2ccccc2n1 [Example 137, 4-(1,1-Dioxo-thiomorpholin-4-yl)-6-(2-quinolin-2-yl-ethyl)-6,7-dihydro-pyrrolo[3,4-b]pyridin-5-one]
microsomal CLint at 0.5 μM [1]: < 100 µL/min/mg | microsomal CLint at 0.5 μM [2]: < 100 µL/min/mg | IC50 [3]: < 100 nM

CN1CCN(c2ccnc3c2C(=O)N(CCc2ccc4ccccc4n2)C3)CC1 [Example 138, 4-(4-Methyl-piperazin-1-yl)-6-(2-quinolin-2-yl-ethyl)-6,7-dihydro-pyrrolo[3,4-b]pyridin-5-one]
microsomal CLint at 0.5 μM [1]: < 100 µL/min/mg | microsomal CLint at 0.5 μM [2]: < 100 µL/min/mg | IC50 [3]: < 100 nM

O=C1c2c(cccc2NC2CNC2)CN1CCc1ccc2ccccc2n1 [Example 145, 7-(Azetidin-3-ylamino)-2-(2-quinolin-2-yl-ethyl)-2,3-dihydro-isoindol-1-one]
microsomal CLint at 0.5 μM [1]: < 100 µL/min/mg | microsomal CLint at 0.5 μM [2]: < 100 µL/min/mg | IC50 [3]: 200 to 500 nM

Cn1c(CCN2Cc3cccc(N4CCOCC4)c3C2=O)nc2ccccc21 [Example 153, 2-[2-(1-Methyl-1H-benzoimidazol-2-yl)-ethyl]-7-morpholin-4-yl-2,3-dihydro-isoindol-1-one]
microsomal CLint at 0.5 μM [1]: < 100 µL/min/mg | microsomal CLint at 0.5 μM [2]: < 100 µL/min/mg | IC50 [3]: < 100 nM

O=C1c2c(-c3cn[nH]c3)ccnc2CN1CCc1ccc2ccccc2n1 [Example 156, 4-(1H-Pyrazol-4-yl)-6-(2-quinolin-2-yl-ethyl)-6,7-dihydro-pyrrolo[3,4-b]pyridin-5-one]
microsomal CLint at 0.5 μM [1]: < 100 µL/min/mg | microsomal CLint at 0.5 μM [2]: 100 to 220 µL/min/mg | IC50 [3]: < 100 nM

O=C(O)C(F)(F)F.O=C(O)C(F)(F)F.O=C1c2c(-c3ccc(F)cc3)ccnc2CN1CCc1ccc2ccccc2n1 [Example 160, 4-(4-Fluoro-phenyl)-6-(2-quinolin-2-yl-ethyl)-6,7-dihydro-pyrrolo[3,4-b]pyridin-5-one (di trifluoroacetate)]
Human mCl (mikrosomal clearance) ([1]; human liver microsomes, 0.5 μM test substance, 0.25 mg microsomal protein, pH 7.4, 37° C., NADPH): + (+: 100-220 μl min^−1 mg^−1) | Rat mCl (mikrosomal clearance) ([2]; rat liver microsomes, 0.5 μM test substance, 0.25 mg microsomal protein, pH 7.4, 37° C., NADPH): ∘ (∘ not avialable or >220 μl min^−1 mg^−1) | IC50 [3]: < 100 nM

COc1ccc(-c2ccnc3c2C(=O)N(CCc2ccc4ccccc4n2)C3)cc1 [Example 161, 4-(4-Methoxy-phenyl)-6-(2-quinolin-2-yl-ethyl)-6,7-dihydro-pyrrolo[3,4-b]pyridin-5-one]
microsomal CLint at 0.5 μM [1]: 100 to 220 µL/min/mg | microsomal CLint at 0.5 μM [2]: > 220 µL/min/mg | IC50 [3]: < 100 nM

Cn1nccc1-c1ccnc2c1C(=O)N(CCc1ccc3ccccc3n1)C2 [Example 162, 4-(2-Methyl-2H-pyrazol-3-yl)-6-(2-quinolin-2-yl-ethyl)-6,7-dihydro-pyrrolo[3,4-b]pyridin-5-one hydrochloride]
microsomal CLint at 0.5 μM [1]: < 100 µL/min/mg | microsomal CLint at 0.5 μM [2]: < 100 µL/min/mg | IC50 [3]: < 100 nM

O=C1c2c(N3CCNCC3)ccnc2CN1CCc1ccc2ccccc2n1 [Example 163, 4-piperazin-1-yl-6-(2-quinolin-2-yl-ethyl)-6,7-dihydro-pyrrolo[3,4-b]pyridin-5-one]
microsomal CLint at 0.5 μM [1]: < 100 µL/min/mg | microsomal CLint at 0.5 μM [2]: < 100 µL/min/mg | IC50 [3]: < 100 nM
